Test results published in patent US11891365B2, “3-alkyl-4-amido-bicyclic [4,5,0] hydroxamic acids as HDAC inhibitors” (Valo Health, Inc., priority 2015, dated 2024).

Biological target: T1, Full length human recombinant HDAC6 protein (Homo sapiens, UniProt Q9UBN7)
T1 sequence (Q9UBN7 1-1215): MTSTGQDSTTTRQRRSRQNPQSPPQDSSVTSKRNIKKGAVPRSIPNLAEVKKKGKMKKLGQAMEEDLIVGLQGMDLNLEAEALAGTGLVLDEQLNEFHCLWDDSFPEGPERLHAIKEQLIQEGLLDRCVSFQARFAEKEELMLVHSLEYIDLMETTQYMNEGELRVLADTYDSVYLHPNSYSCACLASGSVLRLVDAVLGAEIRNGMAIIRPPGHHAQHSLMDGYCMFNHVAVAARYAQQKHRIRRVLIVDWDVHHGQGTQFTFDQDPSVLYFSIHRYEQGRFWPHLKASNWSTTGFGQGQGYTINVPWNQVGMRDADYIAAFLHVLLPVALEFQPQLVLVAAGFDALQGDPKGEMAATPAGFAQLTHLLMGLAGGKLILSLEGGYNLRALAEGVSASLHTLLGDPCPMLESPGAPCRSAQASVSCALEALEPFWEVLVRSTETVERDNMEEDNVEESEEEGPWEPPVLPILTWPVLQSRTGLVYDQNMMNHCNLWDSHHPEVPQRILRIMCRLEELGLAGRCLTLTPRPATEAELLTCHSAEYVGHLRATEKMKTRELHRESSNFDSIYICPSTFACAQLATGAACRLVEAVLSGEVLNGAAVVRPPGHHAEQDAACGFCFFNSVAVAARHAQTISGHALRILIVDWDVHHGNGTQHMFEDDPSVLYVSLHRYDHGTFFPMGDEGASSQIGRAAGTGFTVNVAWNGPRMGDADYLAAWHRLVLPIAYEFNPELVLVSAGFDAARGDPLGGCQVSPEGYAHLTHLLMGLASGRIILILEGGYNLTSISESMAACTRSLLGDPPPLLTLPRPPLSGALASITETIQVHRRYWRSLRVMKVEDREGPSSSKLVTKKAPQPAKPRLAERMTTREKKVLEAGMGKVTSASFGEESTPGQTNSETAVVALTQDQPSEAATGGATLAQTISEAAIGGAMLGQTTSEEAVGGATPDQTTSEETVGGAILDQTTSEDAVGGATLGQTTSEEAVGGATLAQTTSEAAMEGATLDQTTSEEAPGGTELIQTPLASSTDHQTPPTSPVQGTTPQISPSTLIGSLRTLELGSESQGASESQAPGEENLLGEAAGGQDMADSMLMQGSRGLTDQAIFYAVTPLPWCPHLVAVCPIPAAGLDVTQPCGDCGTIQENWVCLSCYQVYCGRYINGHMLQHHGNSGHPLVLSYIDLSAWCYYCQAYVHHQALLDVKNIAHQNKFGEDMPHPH
Assay: In vitro histone deacetylase assay: enzymatic HDAC6 electrophoretic mobility shift assay
Assay type: biochemical
Details: 1 nM enzyme, 2 μM peptide substrate RHKK(Ac)-NH2, 25° C., 12 concentrations; read-out: Inhibitory Concentration (IC50) Values against HDAC6, Activity Range

Row | Compound | IC50 [nM]
1 | CC(=O)N1Cc2ccc(C(=O)NO)cc2O[C@H](C)C1 [(R)-4-acetyl-N-hydroxy-2-methyl-2,3,4,5-tetrahydrobenzo[f][1,4]oxazepine-8-carboxamide] | > 500
2 | CC(=O)N1Cc2ccc(C(=O)NO)cc2OC[C@H]1C(C)C [(R)-4-acetyl-N-hydroxy-3-isopropyl-2,3,4,5-tetrahydrobenzo[f][1,4]oxazepine-8-carboxamide] | 100 to 500
3 | CC(=O)N1Cc2ccc(C(=O)NO)cc2OC[C@H]1C [(R)-4-acetyl-N-hydroxy-3-methyl-2,3,4,5-tetrahydrobenzo[f][1,4]oxazepine-8-carboxamide] | > 500
4 | CC(C)[C@@H]1CN(C=O)Cc2ccc(C(=O)NO)cc2O1 [(R)-4-formyl-N-hydroxy-2-isopropyl-2,3,4,5-tetrahydrobenzo[f][1,4]oxazepine-8-carboxamide] | 100 to 500
5 | COC[C@H]1CN(C(=O)C2(C)CCC2)Cc2ccc(C(=O)NO)cc2O1 [(R)-N-hydroxy-2-(methoxymethyl)-4-(1-methylcyclobutane-1-carbonyl)-2,3,4,5-tetrahydrobenzo[f][1,4]oxazepine-8-carboxamide] | 100 to 500
6 | COC[C@H]1CN(C(=O)C2CCOCC2)Cc2ccc(C(=O)NO)cc2O1 [(R)-N-hydroxy-2-(methoxymethyl)-4-(tetrahydro-2H-pyran-4-carbonyl)-2,3,4,5-tetrahydrobenzo[f][1,4]oxazepine-8-carboxamide] | 100 to 500
7 | CC(C)[C@@H]1CN(C(=O)C2(C)CCC2)Cc2ccc(C(=O)NO)cc2O1 [(R)-N-hydroxy-2-isopropyl-4-(1-methylcyclobutane-1-carbonyl)-2,3,4,5-tetrahydrobenzo[f][1,4]oxazepine-8-carboxamide] | 100 to 500
8 | CC(C)[C@@H]1CN(C(=O)C2CCOCC2)Cc2ccc(C(=O)NO)cc2O1 [(R)-N-hydroxy-2-isopropyl-4-(tetrahydro-2H-pyran-4-carbonyl)-2,3,4,5-tetrahydrobenzo[f][1,4]oxazepine-8-carboxamide] | 100 to 500
9 | O=C(NO)c1ccc2c(c1)O[C@H](c1ccccc1)CN(C(=O)C1CCOCC1)C2 [(R)-N-hydroxy-2-phenyl-4-(tetrahydro-2H-pyran-4-carbonyl)-2,3,4,5-tetrahydrobenzo[f][1,4]oxazepine-8-carboxamide] | 100 to 500
10 | COC[C@@H]1COc2cc(C(=O)NO)ccc2CN1C(=O)C1CCOCC1 [(R)-N-hydroxy-3-(methoxymethyl)-4-(tetrahydro-2H-pyran-4-carbonyl)-2,3,4,5-tetrahydrobenzo[f][1,4]oxazepine-8-carboxamide] | > 500
11 | CC(C)[C@@H]1COc2cc(C(=O)NO)ccc2CN1C(=O)C1(C)CCC1 [(R)-N-hydroxy-3-isopropyl-4-(1-methylcyclobutane-1-carbonyl)-2,3,4,5-tetrahydrobenzo[f][1,4]oxazepine-8-carboxamide] | > 500
12 | C[C@@H]1COc2cc(C(=O)NO)ccc2CN1C(=O)C1(C)CCC1 [(R)-N-hydroxy-3-methyl-4-(1-methylcyclobutane-1-carbonyl)-2,3,4,5-tetrahydrobenzo[f][1,4]oxazepine-8-carboxamide] | 100 to 500
13 | CC1(C(=O)N2Cc3ccc(C(=O)NO)cc3O[C@H](c3ccccc3)C2)CCC1 [(R)-N-hydroxy-4-(1-methylcyclobutane-1-carbonyl)-2-phenyl-2,3,4,5-tetrahydrobenzo[f][1,4]oxazepine-8-carboxamide] | 100 to 500
14 | C[C@@H](C(=O)N1CCOc2cc(C(=O)NO)ccc2C1)c1ccccc1 [(R)-N-hydroxy-4-(2-phenylpropanoyl)-2,3,4,5-tetrahydrobenzo[f][1,4]oxazepine-8-carboxamide] | > 500
15 | CC(C)[C@@H]1c2ccc(C(=O)NO)cc2OCCN1C(=O)C1COC1 [(R)-N-hydroxy-5-isopropyl-4-(oxetane-3-carbonyl)-2,3,4,5-tetrahydrobenzo[f][1,4]oxazepine-8-carboxamide] | > 500
16 | CC(C)[C@@H]1c2ccc(C(=O)NO)cc2OCCN1C(=O)C1CCOCC1 [(R)-N-hydroxy-5-isopropyl-4-(tetrahydro-2H-pyran-4-carbonyl)-2,3,4,5-tetrahydrobenzo[f][1,4]oxazepine-8-carboxamide] | > 500
17 | C[C@@H]1c2ccc(C(=O)NO)cc2OCCN1C(=O)C1(C)CCC1 [(R)-N-hydroxy-5-methyl-4-(1-methylcyclobutane-1-carbonyl)-2,3,4,5-tetrahydrobenzo[f][1,4]oxazepine-8-carboxamide] | > 500
18 | C[C@@H]1c2cc(C(=O)NO)ccc2OCCN1C(=O)C1CCOCC1 [(R)-N-hydroxy-5-methyl-4-(tetrahydro-2H-pyran-4-carbonyl)-2,3,4,5-tetrahydrobenzo[f][1,4]oxazepine-7-carboxamide] | ≤ 100
19 | C[C@@H]1c2ccc(C(=O)NO)cc2OCCN1C(=O)C1CCOCC1 [(R)-N-hydroxy-5-methyl-4-(tetrahydro-2H-pyran-4-carbonyl)-2,3,4,5-tetrahydrobenzo[f][1,4]oxazepine-8-carboxamide] | > 500
20 | O=C(NO)c1ccc2c(c1)OC[C@H](Cc1ccccc1)N(C(=O)C1CCOCC1)C2 [(S)-3-benzyl-N-hydroxy-4-(tetrahydro-2H-pyran-4-carbonyl)-2,3,4,5-tetrahydrobenzo[f][1,4]oxazepine-8-carboxamide] | ≤ 100

The remaining lines, values ahead:

Row | IC50 [nM] | Compound
21 | ≤ 100 | C[C@H]1COc2cc(C(=O)NO)ccc2CN1C(=O)C1CCCOCC1 (stereo partly drawn) [(3S)-N-hydroxy-3-methyl-4-(oxepane-4-carbonyl)-2,3,4,5-tetrahydrobenzo[f][1,4]oxazepine-8-carboxamide]
22 | ≤ 100 | CC(C)C1OCCC1C(=O)N1Cc2ccc(C(=O)NO)cc2OC[C@@H]1C (stereo partly drawn) [(3S)-N-hydroxy-4-(2-isopropyltetrahydrofuran-3-carbonyl)-3-methyl-2,3,4,5-tetrahydrobenzo[f][1,4]oxazepine-8-carboxamide]
23 | ≤ 100 | COC[C@H]1CN(C=O)Cc2ccc(C(=O)NO)cc2O1 [(R)-4-formyl-N-hydroxy-2-(methoxymethyl)-2,3,4,5-tetrahydrobenzo[f][1,4]oxazepine-8-carboxamide]
24 | ≤ 100 | C[C@@H]1CN(C=O)Cc2ccc(C(=O)NO)cc2O1 [(R)-4-formyl-N-hydroxy-2-methyl-2,3,4,5-tetrahydrobenzo[f][1,4]oxazepine-8-carboxamide]
25 | ≤ 100 | O=CN1Cc2ccc(C(=O)NO)cc2O[C@H](c2ccccc2)C1 [(R)-4-formyl-N-hydroxy-2-phenyl-2,3,4,5-tetrahydrobenzo[f][1,4]oxazepine-8-carboxamide]
26 | ≤ 100 | C[C@@H]1COc2cc(C(=O)NO)ccc2CN1C=O [(R)-4-formyl-N-hydroxy-3-methyl-2,3,4,5-tetrahydrobenzo[f][1,4]oxazepine-8-carboxamide]
27 | ≤ 100 | C[C@@H]1CN(C(=O)C2(C)CCC2)Cc2ccc(C(=O)NO)cc2O1 [(R)-N-hydroxy-2-methyl-4-(1-methylcyclobutane-1-carbonyl)-2,3,4,5-tetrahydrobenzo[f][1,4]oxazepine-8-carboxamide]
28 | ≤ 100 | O=C(NO)c1ccc2c(c1)OC[C@H](C(F)(F)F)N(C(=O)C1COC1)C2 [(R)-N-hydroxy-4-(oxetane-3-carbonyl)-3-(trifluoromethyl)-2,3,4,5-tetrahydrobenzo[f][1,4]oxazepine-8-carboxamide]
29 | ≤ 100 | O=C(NO)c1ccc2c(c1)OCCN(C(=O)[C@@H]1CCCOC1)C2 [(R)-N-hydroxy-4-(tetrahydro-2H-pyran-3-carbonyl)-2,3,4,5-tetrahydrobenzo[f][1,4]oxazepine-8-carboxamide]
30 | ≤ 100 | O=C(NO)c1ccc2c(c1)OC[C@H](C(F)(F)F)N(C(=O)C1CCOCC1)C2 [(R)-N-hydroxy-4-(tetrahydro-2H-pyran-4-carbonyl)-3-(trifluoromethyl)-2,3,4,5-tetrahydrobenzo[f][1,4]oxazepine-8-carboxamide]
31 | ≤ 100 | O=C(NO)c1ccc2c(c1)OCCN(C(=O)[C@@H]1CCOC1)C2 [(R)-N-hydroxy-4-(tetrahydrofuran-3-carbonyl)-2,3,4,5-tetrahydrobenzo[f][1,4]oxazepine-8-carboxamide]
32 | ≤ 100 | C[C@@H]1c2cc(C(=O)NO)ccc2OCCN1C(=O)C1(C)CCC1 [(R)-N-hydroxy-5-methyl-4-(1-methylcyclobutane-1-carbonyl)-2,3,4,5-tetrahydrobenzo[f][1,4]oxazepine-7-carboxamide]
